As a reminder, the IC50 is the concentration needed to halve the response being measured. A high value points to weaker potency.

Active and inactive are the calls of the source. No cut-off for these calls is given here.

The results in this text go back to ChEMBL document CHEMBL2311454, “Discovery and evaluation of novel inhibitors of mycobacterium protein tyrosine phosphatase B from the 6-Hydroxy-benzofuran-5-carboxylic acid scaffold” (J Med Chem, 2013).

The target of assay [1] is T1, Tyrosine-protein phosphatase non-receptor type 2 (Homo sapiens, UniProt P17706).
T1 sequence (P17706 whole entry): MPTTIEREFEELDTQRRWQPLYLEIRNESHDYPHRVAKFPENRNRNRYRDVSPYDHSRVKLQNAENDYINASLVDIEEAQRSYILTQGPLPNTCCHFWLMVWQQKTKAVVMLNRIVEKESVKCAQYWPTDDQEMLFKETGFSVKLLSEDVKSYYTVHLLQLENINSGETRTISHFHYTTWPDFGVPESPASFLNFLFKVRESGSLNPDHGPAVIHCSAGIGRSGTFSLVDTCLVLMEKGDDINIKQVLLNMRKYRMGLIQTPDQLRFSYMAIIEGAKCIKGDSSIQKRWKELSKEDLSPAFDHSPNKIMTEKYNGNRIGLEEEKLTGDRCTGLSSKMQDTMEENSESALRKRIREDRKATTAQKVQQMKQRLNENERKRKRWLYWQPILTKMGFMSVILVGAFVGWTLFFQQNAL
Nature of the assay: Inhibition of TCPTP (unknown origin) expressed in Escherichia coli using pNPP substrate after 5 mins by spectrophotometric analysis.

In assay [2] the target is Receptor-type tyrosine-protein phosphatase F (Homo sapiens, UniProt P10586). Nature of the assay: Inhibition of LAR (unknown origin) expressed in Escherichia coli using pNPP substrate after 5 mins by spectrophotometric analysis.
The target of assay [3] is Receptor-type tyrosine-protein phosphatase alpha (Homo sapiens, UniProt P18433). Nature of the assay: Inhibition of PTPalpha (unknown origin) expressed in Escherichia coli using pNPP substrate after 5 mins by spectrophotometric analysis.
The target in a further assay is T2, Laforin (Homo sapiens, UniProt O95278).
T2 sequence (O95278 whole entry): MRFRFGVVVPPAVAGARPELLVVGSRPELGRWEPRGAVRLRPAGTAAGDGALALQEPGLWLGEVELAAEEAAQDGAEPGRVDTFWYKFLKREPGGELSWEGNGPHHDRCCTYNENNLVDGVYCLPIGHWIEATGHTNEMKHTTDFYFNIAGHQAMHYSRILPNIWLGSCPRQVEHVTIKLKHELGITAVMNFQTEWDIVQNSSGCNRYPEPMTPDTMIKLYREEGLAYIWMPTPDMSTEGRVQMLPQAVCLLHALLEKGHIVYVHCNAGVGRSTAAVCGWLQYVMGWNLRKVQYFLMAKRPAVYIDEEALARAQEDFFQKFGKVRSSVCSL
Nature of the assay: Inhibition of Laforin (unknown origin) expressed in Escherichia coli using pNPP substrate after 5 mins by spectrophotometric analysis.

The subject of assay [4] is RAW264.7. Nature of the assay: Inhibition of Mycobacterium tuberculosis PTPB expressed in mouse RAW264.7 macrophages assessed as decrease in Akt activity after 1 hr by Western blotting analysis. Format: cell-based. (In general: Immunoblotting shows a protein as a band on a membrane.)
The test system of assay [5] is Mycobacterium tuberculosis. Nature of the assay: Inhibition of Mycobacterium tuberculosis PTPB expressed in mouse RAW264.7 macrophages assessed as restoration of IFNgamma-induced p38 activation after 1 hr by Western blotting analysis.
Assay [6] relates to RAW264.7. Nature of the assay: Inhibition of Mycobacterium tuberculosis PTPB expressed in mouse RAW264.7 macrophages assessed as induction of apoptosis after 1 hr by annexin V-FITC /propidium iodide staining-based flow cytometric analysis. It counts as cell-based. (Flow cytometry measures light scatter and fluorescence of single cells or particles in a stream.)
Assay [7] deals with Mycobacterium tuberculosis. Nature of the assay: Inhibition of Mycobacterium tuberculosis PTPB expressed in mouse RAW264.7 macrophages assessed as restoration of IFNgamma-induced IL-6 production after 1 hr by ELISA.
Assay [8] has as its system RAW264.7. The assay can be described thus: Inhibition of Mycobacterium tuberculosis PTPB expressed in mouse RAW264.7 macrophages assessed as increase in caspase activity after 1 hr by spectrophotometric analysis. Format: cell-based.
The test system of assay [9] is Mycobacterium tuberculosis. The assay can be described thus: Inhibition of Mycobacterium tuberculosis PTPB expressed in mouse RAW264.7 macrophages assessed as restoration of IFNgamma-induced ERK1/2 activation after 1 hr by Western blotting analysis.

Receptor-type tyrosine-protein phosphatase F, sequence (P10586 whole entry): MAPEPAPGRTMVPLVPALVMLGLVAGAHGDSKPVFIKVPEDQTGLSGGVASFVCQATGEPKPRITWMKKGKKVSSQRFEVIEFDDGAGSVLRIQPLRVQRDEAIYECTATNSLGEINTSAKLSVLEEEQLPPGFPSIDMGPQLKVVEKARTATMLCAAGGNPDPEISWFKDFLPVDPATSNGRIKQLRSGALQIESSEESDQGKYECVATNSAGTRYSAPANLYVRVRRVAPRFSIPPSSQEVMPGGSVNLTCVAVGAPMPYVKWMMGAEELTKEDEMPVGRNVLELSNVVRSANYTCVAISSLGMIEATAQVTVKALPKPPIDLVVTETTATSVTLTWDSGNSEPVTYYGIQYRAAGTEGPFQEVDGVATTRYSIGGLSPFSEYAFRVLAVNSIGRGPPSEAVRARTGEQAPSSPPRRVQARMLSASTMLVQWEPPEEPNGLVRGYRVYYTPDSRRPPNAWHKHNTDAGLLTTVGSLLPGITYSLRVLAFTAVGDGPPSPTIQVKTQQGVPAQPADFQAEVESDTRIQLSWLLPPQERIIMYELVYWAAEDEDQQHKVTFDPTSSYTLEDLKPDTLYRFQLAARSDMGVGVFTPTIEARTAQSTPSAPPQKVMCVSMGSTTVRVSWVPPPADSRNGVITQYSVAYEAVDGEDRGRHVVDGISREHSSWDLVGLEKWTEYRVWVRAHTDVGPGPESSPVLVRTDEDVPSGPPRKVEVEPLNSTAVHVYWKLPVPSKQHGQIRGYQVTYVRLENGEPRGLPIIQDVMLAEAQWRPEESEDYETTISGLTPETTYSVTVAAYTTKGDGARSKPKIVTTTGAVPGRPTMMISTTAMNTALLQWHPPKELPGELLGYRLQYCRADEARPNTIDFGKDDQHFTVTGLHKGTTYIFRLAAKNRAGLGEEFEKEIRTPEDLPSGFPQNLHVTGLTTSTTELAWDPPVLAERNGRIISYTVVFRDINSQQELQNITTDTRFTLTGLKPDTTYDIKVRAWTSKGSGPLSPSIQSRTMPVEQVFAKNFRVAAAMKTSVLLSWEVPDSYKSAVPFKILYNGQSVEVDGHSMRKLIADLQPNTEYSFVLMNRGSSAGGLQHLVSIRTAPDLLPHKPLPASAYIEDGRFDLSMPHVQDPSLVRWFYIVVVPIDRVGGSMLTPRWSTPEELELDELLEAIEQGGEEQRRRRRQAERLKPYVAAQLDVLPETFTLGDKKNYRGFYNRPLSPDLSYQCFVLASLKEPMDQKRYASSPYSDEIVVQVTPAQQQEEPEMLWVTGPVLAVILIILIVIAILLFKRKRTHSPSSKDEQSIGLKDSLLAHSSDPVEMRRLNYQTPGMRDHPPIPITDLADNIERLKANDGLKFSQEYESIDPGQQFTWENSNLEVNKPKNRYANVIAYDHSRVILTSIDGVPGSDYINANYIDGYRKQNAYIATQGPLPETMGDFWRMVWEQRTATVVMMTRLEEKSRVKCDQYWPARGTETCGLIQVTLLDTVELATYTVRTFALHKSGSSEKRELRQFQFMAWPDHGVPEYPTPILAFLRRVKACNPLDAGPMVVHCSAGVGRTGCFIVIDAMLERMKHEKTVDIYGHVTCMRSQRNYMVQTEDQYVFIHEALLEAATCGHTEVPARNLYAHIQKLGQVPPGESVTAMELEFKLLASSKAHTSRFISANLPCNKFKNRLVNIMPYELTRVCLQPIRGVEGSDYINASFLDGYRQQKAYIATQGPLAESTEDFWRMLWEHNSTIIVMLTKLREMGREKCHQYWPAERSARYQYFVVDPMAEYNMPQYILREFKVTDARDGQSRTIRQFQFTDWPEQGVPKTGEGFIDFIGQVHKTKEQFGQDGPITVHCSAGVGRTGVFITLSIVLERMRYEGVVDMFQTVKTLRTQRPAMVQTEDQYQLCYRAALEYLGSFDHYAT
Receptor-type tyrosine-protein phosphatase alpha, sequence (P18433 whole entry): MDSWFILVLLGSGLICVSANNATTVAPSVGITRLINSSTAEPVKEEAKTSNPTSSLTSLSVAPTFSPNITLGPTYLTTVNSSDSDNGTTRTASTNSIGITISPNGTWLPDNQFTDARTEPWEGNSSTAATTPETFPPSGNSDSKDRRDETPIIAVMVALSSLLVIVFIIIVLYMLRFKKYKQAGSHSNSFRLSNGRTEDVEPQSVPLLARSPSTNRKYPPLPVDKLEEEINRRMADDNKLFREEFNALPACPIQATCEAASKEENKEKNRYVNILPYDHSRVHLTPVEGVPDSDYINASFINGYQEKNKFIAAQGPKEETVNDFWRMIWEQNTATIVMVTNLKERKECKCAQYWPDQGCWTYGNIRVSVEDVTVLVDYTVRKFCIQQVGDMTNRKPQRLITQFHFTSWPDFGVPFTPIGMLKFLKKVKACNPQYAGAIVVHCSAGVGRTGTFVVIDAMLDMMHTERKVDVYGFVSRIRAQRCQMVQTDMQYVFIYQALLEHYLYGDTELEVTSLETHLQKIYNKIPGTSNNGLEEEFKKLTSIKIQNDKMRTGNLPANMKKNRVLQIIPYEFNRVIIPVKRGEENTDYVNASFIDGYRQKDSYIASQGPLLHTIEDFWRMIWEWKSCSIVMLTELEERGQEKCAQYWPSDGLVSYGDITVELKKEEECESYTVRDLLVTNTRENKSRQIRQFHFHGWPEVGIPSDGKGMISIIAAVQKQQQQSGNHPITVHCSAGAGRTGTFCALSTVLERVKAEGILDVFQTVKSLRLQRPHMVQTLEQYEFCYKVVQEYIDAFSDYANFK

Consider `O=C(O)c1cc2c(C#Cc3cc(F)cc(F)c3)c(-c3ccccc3)oc2cc1O`, for which the IC50 was 6.1 µM in [1], above 10 µM in [2], above 10 µM in assay [3] and above 30 µM at Laforin.
In the case of `O=C(O)c1cc2c(C#Cc3cccc(C(F)(F)F)c3)c(-c3ccccc3)oc2cc1O`, the inhibition result in the assay with RAW264.7 [4], in the assay on RAW264.7 [6] and in the assay with RAW264.7 [8] was “Active” in each case. In addition, the IC50 in [1] was 13 µM; in [2], above 10 µM; in assay [3] it was above 10 µM. The inhibition result in [5], in assay [7] and in assay [9] was “Dose-dependent effect” throughout.
